Source: PubChem BioAssay (NCI)
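Following 48 hours of exposure in 96-well plates, responses at five concentrations were used to interpolate endpoints linearly. GI50 = concentration required for 50% inhibition of growth. At the TGI there is no net growth.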

Legend:
Test in all cases: NCI tumour cell line growth inhibition, 48 h
[1] = test system: COLO 205 colon
[2] = test system: TK-10 renal
[3] = test system: NCI-H23 lung
[4] = test system: K-562 leukemia
[5] = test system: SK-MEL-28 melanoma
[6] = test system: NCI-H226 lung
[7] = test system: MOLT-4 leukemia
[8] = test system: SNB-19 CNS
[9] = test system: A549 NSCLC
[10] = test system: MDA-MB-435

Compound | TGI [1] | TGI [2] | TGI [3] | TGI [4] | TGI [5] | TGI [6] | TGI [7] | TGI [8] | TGI [9] | GI50 [1] | GI50 [2] | GI50 [3] | GI50 [4] | GI50 [10] | TGI [10] | GI50 [5] | GI50 [6] | GI50 [8] | GI50 [9] | GI50 [7]
O=C1CCC(=O)c2c1c(O)c1ccncc1c2O | 20.8 µM | 33 µM | 31.9 µM | 44 µM | 34.8 µM | 45.3 µM | 43.1 µM | 89.2 µM | 43.5 µM |  |  |  |  |  |  |  |  |  |  | 
O=C1c2cc3c(cc2-c2c1c1cc(Cl)c(Cl)cc1c(=O)n2C[C@H](O)CO)OCO3 | 0.291 µM | 0.934 µM | 0.0448 µM | > 100 µM | 8.62 µM | 0.0248 µM |  | 2.79 µM | 0.253 µM | < 0.01 µM | 0.0578 µM | < 0.01 µM | < 0.01 µM | 0.0111 µM | 0.168 µM | 0.0429 µM | < 0.01 µM | < 0.01 µM | < 0.01 µM | 
C#Cc1nc(Nc2cc(C)[nH]n2)c2ccccc2n1 | 0.674 µM | 2.91 µM | 3.59 µM | > 100 µM | 1.71 µM |  | 0.685 µM | 81.1 µM | 2.24 µM | 0.279 µM | 0.427 µM | 0.553 µM | 0.349 µM | 0.213 µM | 0.563 µM | 0.363 µM |  | 2.27 µM | 0.394 µM | 0.25 µM
C[Si](C)(C)/C(I)=C/CO | 31.1 µM | 96.9 µM | 39.5 µM | 41.4 µM | 77.5 µM | 39.3 µM | 35.3 µM | 64.7 µM | 76.3 µM |  |  |  |  |  |  |  |  |  |  | 
Cc1ccc(NC(=O)CCc2nnc(N)o2)cc1 | > 100 µM | > 100 µM | > 100 µM | > 100 µM | > 100 µM | > 100 µM | > 100 µM | > 100 µM | > 100 µM |  |  |  |  |  |  |  |  |  |  | 
Cc1cc(N(CCCNc2ccnc3cc(Cl)ccc23)Cc2ccc3c(c2)OCO3)nc(N2CCOCC2)n1 | 0.802 µM |  |  | 10 µM | 0.681 µM |  | 0.953 µM | > 100 µM |  | 0.269 µM |  |  | 0.328 µM | 0.37 µM | 1.78 µM | 0.254 µM |  | 0.325 µM |  | 0.283 µM
CCOC(=O)c1ccc(N=Nc2cc(C(=O)OCC)ccc2O)cc1 | > 100 µM | > 100 µM | > 100 µM | > 100 µM | > 100 µM |  | > 100 µM |  | > 100 µM |  |  |  |  |  |  |  |  |  |  | 
CSc1ccccc1C#C/C=C\C#Cc1ccccc1N | 29.5 µM |  | 37.3 µM | > 100 µM | 50.4 µM | 52 µM | > 100 µM | > 100 µM | 89.6 µM | 13.6 µM |  | 13.1 µM | 5.08 µM | 0.982 µM | 2.49 µM | 24.7 µM | 13.4 µM | 22.2 µM | 7.58 µM | 8.04 µM
CN1CC[C@@H](c2c(O)cc(O)c3c(=O)cc(-c4ccc(C(F)(F)F)cc4Cl)oc23)[C@@H]1CO | 32.9 µM | 43.5 µM | 37.3 µM | 85.6 µM | 32.2 µM | 77.2 µM |  | 62.7 µM | 56.2 µM | 15.1 µM | 14.7 µM | 15.2 µM | 29.8 µM | 10 µM | 23 µM | 14.4 µM | 10.5 µM | 21 µM | 23.9 µM | 
C=CCC1(CN(C)C)CC/C(=C\c2ccc(Cl)cc2)C1=O (centres undefined) | > 59.8 µM | > 100 µM | > 100 µM | 76.3 µM | > 100 µM | > 100 µM | 53 µM | > 100 µM | > 100 µM |  |  |  |  |  |  |  |  |  |  | 
CC(C)OC(=O)[C@H](C)NP(=O)(OC[C@H]1O[C@@H](n2ccc(=O)[nH]c2=O)[C@](C)(F)[C@@H]1O)Oc1ccccc1 (some centres undefined) |  | > 100 µM | > 100 µM |  | > 100 µM | > 100 µM | > 100 µM | > 100 µM | > 100 µM |  | > 100 µM | > 100 µM |  | > 100 µM | > 100 µM | > 100 µM | > 100 µM | > 100 µM | > 100 µM | > 100 µM
[N-]=[N+]=N/C1=C/CCCCC(=O)C1 | > 100 µM | > 100 µM | > 100 µM | > 100 µM | > 100 µM |  | > 100 µM | > 100 µM | > 100 µM |  |  |  |  |  |  |  |  |  |  | 
COC(=O)c1s/c(=N\C(=S)N(C)C)n(-c2ccc(Cl)cc2)c1C(=O)OC | > 100 µM | > 100 µM | > 100 µM | > 100 µM | > 100 µM | > 100 µM | > 100 µM | > 100 µM | > 100 µM |  |  |  |  |  |  |  |  |  |  | 
O=c1[nH]c2ccc(O)cc2o1 | > 100 µM | > 100 µM | > 100 µM | > 100 µM | > 100 µM | > 100 µM | > 100 µM | > 100 µM | > 100 µM |  |  |  |  |  |  |  |  |  |  | 
C[Si](C)(C)/C(Br)=C\CCN1C(=O)CCC1=O | > 100 µM | > 100 µM | > 100 µM | > 100 µM | > 100 µM | > 100 µM | > 100 µM | > 100 µM | > 100 µM |  |  |  |  |  |  |  |  |  |  | 
CN(C)CCSc1cc(-c2ccccc2)c2ccccc2n1 | 4.85 µM | 19.4 µM | 23.1 µM | 23.5 µM | 17.9 µM | 33.4 µM |  | 28.5 µM | 28.5 µM |  |  |  |  |  | 22.1 µM |  |  |  |  | 
COc1ccc(/C(=C\C=C(C#N)C#N)Sc2nc3ccccc3s2)cc1 | 17.4 µM | 11.8 µM | 20 µM | > 50 µM |  | 40.9 µM |  | 29.6 µM | > 50 µM | 7.24 µM | 5.43 µM | 9.46 µM | 1.58 µM | 8.34 µM | 18.5 µM |  | 11.2 µM | 12.6 µM | 15.5 µM | 
COc1ccc(Cn2c(N)c(S(=O)(=O)c3ccc(Cl)cc3)c3nc(C#N)c(C#N)nc32)cc1 | > 50 µM | 41.5 µM | > 50 µM | > 50 µM | > 50 µM |  |  | > 50 µM | > 50 µM | > 50 µM | 11.6 µM | 17 µM | > 50 µM | > 50 µM | > 50 µM | > 50 µM |  | 18 µM | 18.2 µM | 
